One data set deals with PGD2. Particulars: dosed intranasally, phase I/II study, allergic rhinitis; cited from earlier work.
The conditions of data set [1]: phase II clinical trial, allergic rhinitis; cited from earlier work.
Data set [2] deals with T1, recombinant human GST-SYK (Homo sapiens, UniProt P43405).
T1 construct: purchased Carna Biosciences 08-176
Description: Homogeneous Time-Resolved Fluorescence (HTRF) assay for the recombinant human Syk enzyme. The class given is biochemical. The settings on record: recombinant human GST-SYK 5 pM, ATP 25 μM, read-out: rhSYK IC50. The method in brief: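 GST-tagged human Syk (5 pM) preincubated 10 min with inhibitor (0.1% DMSO) in pH 7.5 Tris buffer, then 45 min at room temperature with 250 nM biotinylated peptide, 5 mM Mg and 25 μM ATP. EDTA-quenched; Eu-anti-phosphotyrosine/SA-APC HTRF read after 30 min, giving IC50.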

One may read the IC50 as the concentration that inhibits the measured activity by half.

For `Oc1cccc(Nc2ncc(F)c(Nc3cccc(O)c3)n2)c1` [Example R112], in the data set on PGD2, the “change in PGD2” value is recorded as “statistically significant decrease in PGD2” and the clinical safety result is given as “safe across a range of indicators”. Further, the efficacy versus placebo result in data set [1] was “lack of efficacy versus placebo”.

As for `Cc1cc(Nc2cc(C(F)(F)F)ncn2)nc(-c2cnc(C3(O)CCC(C(=O)O)C(C)(C)C3)s2)c1` (single isomer, unassigned) [Example 1.7, (1S,4R or 1R,4S)-4-hydroxy-2,2-dimethyl-4-[5-(4-methyl-6-{[6-(trifluoromethyl)pyrimidin-4-yl]amino}pyridin-2-yl)-1,3-thiazol-2-yl] cyclohexane-carboxylic acid], in data set [2], the IC50 turned out to be 2.62 nM.

The values are drawn from patent US9745295B2, “Thiazole-substituted aminoheteroaryls as spleen tyrosine kinase inhibitors” (Merck Sharp & Dohme Corp., priority 2013, dated 2017).
